Experimental data: patent publication US7618984B2, “Sulfonamide compound” (Asahi Kasei Pharma Corporation, priority 2005, dated 2009)
pIC50: −log10 of the molar value.

Legend:
[1] = tested on: rabbit normal intraocular pressure; test: Intraocular pressure reducing action (Test Example 2); assay type: in vivo, Japanese white rabbit; conditions: Oryctolagus cuniculus, topical; 3 mM aqueous solution, 50 μl to the left eye; measured after 2, 4 and 6 hours; read-out: intraocular pressure reducing degree (max ΔIOP / intraocular pressure value immediately before administration × 100)
Description: A Japanese white rabbit having a body weight of about 2 kg was placed in a positioner and naturalized for one week before the experiment. An opthalmologic local anesthesant (Benoxil) was administered to both eyes, and then intraocular pressure was measured by using a tonometer (Classic 30, Solan). A 3 mM aqueous solution of a test compound was administered in a volume of 50 μl to the left eye, and the right eye was not treated (control eye). The intraocular pressure values were measured for the left and right eyes immediately before, and 2, 4 and 6 hours after the administration of the aqueous solution of the test compound, and the difference of the measured values for the left and right eyes was considered an intraocular pressure reduction value of the test medicament at each measurement time. The largest difference of the values for the left and right eyes among the measured values at the measurement times (after 2, 4 and 6 hours) was considered the maximum intraocular pressure reduction value (max ΔIOP) of each test medicament. The intraocular pressure reducing degree representing the intraocular pressure reducing action of each test medicament was calculated according to the following formula. Since rabbits show significant daily variation of intraocular pressure, daily variation is added when change of intraocular pressure is measured over time, and the intraocular pressure reducing action may be overestimated. Therefore, we used this calculation method of intraocular pressure reduction value in order to minimize the influence of the variation. Intraocular pressure reducing degree (%)=(max ΔIOP/Intraocular pressure value immediately before administration)×100

[2] = tested on: rabbit intraocular pressure; test: Rabbit intraocular pressure reduction enhancing action, combination use (Test Example 6-1); assay type: in vivo, Japanese white rabbit; conditions: 50 μL, difference of left and right eyes, 2, 4 and 6 hours
Description: However, the effect is not limited to the 19-1 compound, and the ophthalmic solution concentration of the 19-1 compound is not limited to those used in this test example. Moreover, as for the test compound used for combination use, similar effect can be obtained also with the compounds of the present invention represented with the example numbers mentioned in Test Example 2.
As a test compound, the 19-1 compound was dissolved in physiological saline, and the solution was neutralized by addition of sodium hydroxide (pH 7.0 to 8.0) to prepare a 0.01 weight % aqueous solution (19-1 compound aqueous solution). As the drugs for combination use, isopropyl unoprostone (trade name: Rescula, Santen Pharmaceutical) was used as a prostaglandin-related drug, and brinzolamide hydrochloride (trade name: Azopt, Alcon Japan) was used as […], as the marketed formulations as they were.
A Japanese white rabbit having a body weight of about 2 kg was placed in a positioner and naturalized for one week before the experiment. An opthalmologic local anesthesant (Benoxil) was administered to both eyes, and then intraocular pressure before instillation was measured by using a tonometer (Classic 30, Solan). A test aqueous solution or the drug for combination use was administered to the left eye, and the right eye was not treated (control eye). The test groups consisted of (1) control group, (2) group instilled only with the 19-1 compound aqueous solution (single drug group 1), (3) group instilled only with the drug for combination use (single drug group 2), and (4) group instilled with the drug for combination use and the 19-1 compound aqueous solution (combination use group), and six rabbits were used for each group. As for the rabbits of these groups, 50 μL of physiological saline was first instilled to the control group, single drug group 1, and single drug group 2, and the drug for combination use was first instilled in the same volume to the combination use group. […] The intraocular pressure thereafter was measured for each group 2, 4 and 6 hours after the second administration of the test compound, and the difference of the measured values for the left and right eyes at each measurement time was considered an intraocular pressure reduction value of each group. The largest difference of the intraocular pressure values for the left and right eyes among those of the measured values of the measurement times was considered the maximum intraocular pressure reduction value (max ΔIOP) of each drug group.

[3] = tested on: phosphorylation of myosin regulatory light chain; test: Inhibitory action on phosphorylation of myosin regulatory light chain (Test Example 1); assay type: cell-based; conditions: Neutrophil, 5 min; human peripheral blood neutrophils, 25° C. for 5 minutes; read-out: IC50, compound concentration providing a phosphorylation inhibition ratio of 50% (myosin regulatory light chain)
Description: A volume of 50 to 100 ml of peripheral blood collected from healthy volunteers was centrifuged by using Mono-Poly separator solution (Dainippon Pharmaceutical) to prepare a neutrophil containing fraction. The neutrophils were washed with PBS(−) and resuspended in Hanks' Balanced Salt Solution (HBSS+, Gibco) to prepare a cell suspension (8×10^6/ml). The cell suspension was diluted to 5×10^6/ml, introduced into Eppendorf tubes in a volume of 0.4 ml each, then 0.1 ml each of solutions of a test compound at various concentrations were added to the suspension and allowed to react at 25° C. for 5 minutes. After the reaction, 0.1 ml of trichloroacetic acid solution was added to each reaction mixture, the reaction mixture was gently shaken and centrifuged at 12,000 rpm (4° C., 5 minutes), and the supernatant was removed. Subsequently, 3 μl of 1 M Tris solution was added to the residue, the mixture was further mixed with 50 μl of extraction buffer (8 M urea, 0.02% 2-mercaptoethanol, 0.002% bromophenol blue) and left stand at room temperature for 1 hour. Then, the reaction mixture was loaded on a spin column (0.45 μm, Millipore) to remove the insoluble solids and a sample buffer for SDS polyacrylamide gel electrophoresis (25 mM, Tris-HCl pH 6.8, 2.5% 2-mercaptoethanol, 2% sodium dodecylsulfate, 5% sucrose, 0.002% bromophenol blue as final concentrations) was added, and 10 μl of each sample was subjected to electrophoresis.
The gel after the electrophoresis was blotted on a nitrocellulose membrane (BioRad), blocked with 5% skim milk, and reacted successively with antibodies pLC1 (Sakurada K. et al, Am. J. Physiol., 274, C1563-C1572 (1998)), which specifically recognize the phosphorylated myosin regulatory light chain, and donkey anti-mouse IgG (Chemicon) conjugated with horseradish peroxidase. The band of the phosphorylated myosin regulatory light chain was detected on a film by using ECL Plus Kit (Amersham Pharmacia Biotech). This band was subjected to quantification using a densitometer. By using this value, the inhibitory ratio (%) for phosphorylation of the myosin regulatory light chain was calculated by using the following equation. Phosphorylation inhibition ratio(%)=1−(Band intensity of phosphorylated myosin regulatory light chain with addition of the test compound/Band intensity of phosphorylated myosin regulatory light chain without addition of the test compound)×100
Further, the phosphorylation inhibition ratio was calculated with changing the concentrations of the test compound, and a compound concentration providing an inhibition ratio of 50% was obtained as IC50.

For `N[C@H]1CCN(S(=O)(=O)c2cccc3cncc(Cl)c23)C1` [Example 19-1, (S)-3-Amino-1-(4-chloro-5-isoquinolinesulfonyl)pyrrolidine], the inhibition in vivo at 3000 µM [1] was at least 20%, the “Max ΔIOP (maximum intraocular pressure reduction value), Table 2” value ([2]; 0.01 weight % 19-1 compound aqueous solution and/or brinzolamide hydrochloride (Azopt)) was 4.3 mmHg and the “Max ΔIOP (maximum intraocular pressure reduction value), Table 3” value ([2]; 0.01 weight % 19-1 compound aqueous solution and/or isopropyl unoprostone (Rescula)) was 4.3 mmHg. For the same molecule, the pIC50 [3] was over 5.00.
